The values below come from ChEMBL document CHEMBL2424512, “Discovery and biophysical characterization of 2-amino-oxadiazoles as novel antagonists of PqsR, an important regulator of Pseudomonas aeruginosa virulence” (J Med Chem, 2013).

Structures are written as SMILES. pEC50, pKd: −log10 of the molar value. Activity calls are given as the source filed them. The calls are words filed in the database; no cut-off is given here.

Experiment [1] concerns the target T1, Transcriptional regulator MvfR (Pseudomonas aeruginosa PA14) (UniProt A0A072ZLE6).
T1 sequence (whole entry): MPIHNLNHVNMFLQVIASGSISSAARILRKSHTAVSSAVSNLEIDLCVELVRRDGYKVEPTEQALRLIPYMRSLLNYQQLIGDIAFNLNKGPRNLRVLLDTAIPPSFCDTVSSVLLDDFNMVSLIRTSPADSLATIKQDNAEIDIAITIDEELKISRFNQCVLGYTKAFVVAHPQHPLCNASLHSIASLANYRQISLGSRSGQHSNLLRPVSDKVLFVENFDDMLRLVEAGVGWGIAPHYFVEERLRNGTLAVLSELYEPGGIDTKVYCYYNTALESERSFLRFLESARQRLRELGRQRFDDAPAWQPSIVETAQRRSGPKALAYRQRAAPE
Kind of experiment: Antagonist activity at Pseudomonas aeruginosa PA14 PqsR assessed as reduction of pyocyanin level by UHPLC-MS/MS analysis.

Experiment [2] addresses T2, Transcriptional regulator MvfR (Pseudomonas aeruginosa PA14, UniProt A0A072ZLE6).
T2 sequence (A0A072ZLE6 whole entry): T1 sequence (whole entry)
Nature of the experiment: Antagonist activity at Pseudomonas aeruginosa PA14 PqsR expressed in Eschericia coli DH5-alpha assessed as inhibition of PQS-induced protein activation by beta-galactosidase reporter gene assay.

The target of experiment [3] is T2, Transcriptional regulator MvfR. Kind of experiment: Binding affinity to Pseudomonas aeruginosa PA14 biotinylated His6SUMO-tagged PqsR expressed in Eschericia coli BL21 (lamda DE3) by isothermal titration calorimetry. In general terms: In ITC the heat of successive injections is recorded.
The target is the same in experiment [4]. Nature of the experiment: Binding affinity to Pseudomonas aeruginosa PA14 biotinylated His6SUMO-tagged PqsR expressed in Eschericia coli BL21 (DE3) by surface plasmon resonance spectroscopic analysis. (In general: SPR reads the build-up and loss of mass on a sensor chip optically.)
For experiment [5] the target is unchanged. Nature of the experiment: Antagonist activity at Pseudomonas aeruginosa PA14 PqsR expressed in pqs gene-deficient Pseudomonas aeruginosa PA14 by beta-galactosidase reporter gene assay.
The next experiment relates to Pseudomonas aeruginosa. Nature of the experiment: Antibacterial activity against Pseudomonas aeruginosa PA14 at 250 uM after 1 to 8 hrs by spectrophotometer analysis. The experiment is classed as functional, organism-based.

On to `CC(C)(C)c1ccc(C(=O)NO)cc1`, for which the inhibition entry in experiment [1] is “Active”. Broadly, the pEC50 is the EC50 on a negative log10 scale, so that one unit is a factor of ten. As for `Nc1nnc(-c2cccc(OC(F)(F)F)c2)o1`, in experiment [2], the pEC50 is 4.33.

In general, pKd refers to the Kd on a negative log10 scale, so that one unit is a factor of ten. For the molecule `NC(=O)c1ccc2ccccc2c1`, the negative-log Kd (pKd) in experiment [3] is 5.74; in experiment [4], 6.10. On to `Nc1nnc(-c2cccc(Cl)c2)o1`, for which the negative logarithm of the EC50 (pEC50) in experiment [2] was 4.57. For the molecule `Nc1cccc(Br)n1`, the negative logarithm of the Kd (pKd) in experiment [3] was 5.00; in experiment [4], 5.17. Take `Cc1cccc(-c2nnc(N)o2)c1`: the negative-log EC50 (pEC50) in experiment [2] was 4.24. The same molecule showed a pKd in experiment [3] of 4.91. For the molecule `COc1cccc(-c2nnc(N)o2)c1`, the inhibition result in experiment [1] is “inactive”. With `FC(F)(F)c1cc(-c2cccs2)n[nH]1`, the results for the pKd in experiment [3] and in experiment [4] were 5.07 and 4.97, respectively. `CC(C)(C)c1ccc(C(N)=O)cc1` gave a negative logarithm of the Kd (pKd) in experiment [3] of 6.05. In the case of `Nc1nnc(-c2ccc(Cl)cc2)s1`, the pKd in experiment [3] was 5.43; in experiment [4], 5.35. Consider `NC(=O)c1cccc(Br)c1`, for which the negative logarithm of the Kd (pKd) is 5.12 in experiment [3] and 5.17 in experiment [4]. For the molecule `N#Cc1cccc(-c2nnc(N)o2)c1`, the negative logarithm of the EC50 (pEC50) in experiment [2] is 4.75.

Regarding `FC(F)(F)c1cccc(-c2nnco2)c1`, in experiment [2], the negative logarithm of the EC50 (pEC50) was 3.99. For the same molecule, in experiment [3], the pKd was 5.19. Take `Nc1nnc(-c2ccc(Cl)cc2)o1`: the negative logarithm of the Kd (pKd) in experiment [4] was 3.70.

`CCCCCCCc1cc(=O)c2cc(C(F)(F)F)ccc2[nH]1`: the inhibition entry in experiment [1] is “Active”.

Take `CC(C)(C)c1cccc(-c2nnc(N)o2)c1`: in experiment [3], the pKd is 5.51.

With `Nc1nnc(-c2cccc(Br)c2)o1`, the pEC50 in experiment [2] was 5.12.

Regarding `Nc1nnc(-c2cccc(C(F)(F)F)c2)o1`, the negative-log EC50 (pEC50) in experiment [2] was 5.12; in experiment [5], 4.41. This molecule also gave a negative logarithm of the Kd (pKd) in experiment [3] of 5.89. The result in the experiment on Pseudomonas aeruginosa was inactive. In experiment [3], `Cc1nnc(-c2cccc(C(F)(F)F)c2)o1` had a pKd of 4.89. In experiment [4], `CCCCCCCc1[nH]c2ccccc2c(=O)c1O` showed a negative logarithm of the Kd (pKd) of 6.68.
